Measured values reported in patent US20040105907A1, “Anti-inflammatory effects of the partially purified extract of radix stephaniae tetrandrae” (priority 2002, published 2004).

Tests used:
Type in all cases: cell-based
neutrophils = assay: Cell viability / cytotoxicity by propidium iodide exclusion assay; settings: 10 μg/ml, drug alone, 1 h incubation
Experimental: FIG. 17. Effects of Fan, Tet or SPRST on cell viability. Cell viability was measured by a propidium iodide exclusion assay. After incubation of cells (2×10^6/ml) with SPRST or test drugs for 1 h, cell suspension was further incubated with propidium iodide (10 μg/ml) and fluorescein diacetate (100 ng/ml) at room temperature for 10 min. Cell suspension was analyzed immediately on a flow cytometer (FACSCalibur™; Becton Dickinson) by recording forward and light scatter, red (>630 nm) and green (520 nm) fluorescence. […] Cell viability (%) was calculated by the CellQuest® software (Becton Dickinson) on a Power Macintosh 7300/200 computer. […]
Estimation of cell viability. Cell viability was determined according to Ormerod's method (Ormerod, M. G., 2000. Further applications to cell biology. In: Ormerod, M. G (Ed.), Flow cytometry, Third edition. Oxford University Press, UK, pp. 249-250) after incubation of, cells (2×10^6/ml) with test drugs for 1 h in 5-ml polystyrene round-bottomed tube (FALCON, Becton Dicson). […] After incubation with test drugs, cells suspension were further incubated with propidium iodide and fluorescein diacetate at room temperature for 10 min and analyzed immediately on a flow cytometer (FACSCalibur™; Becton Dickinson) by recording forward and light scatter, red (>630 nm) and green (520 nm) fluorescence. […]

human neutrophils [1] = assay: fMLP- or LTB4-induced intracellular calcium concentration ([Ca2+]i), fura-2; settings: 500 ng/ml pretreatment, 2 hrs
Experimental: Neutrophils (2×10^6/ml) were preloaded with fura 2-AM (5 μM) at 37° C. for 45 min and washed twice with HBSS (calcium free). […] For G-protein study, sample was pretreated with 500 ng/ml of pertussis toxin (PTX) at 37° C. for 2 hrs. Samples were gentle mixed with a micromagnetic stirrer at 37° C. for 5 min before addition of 1 μM of fMLP. [Ca^2+]i was measured on a spectrofluorometer as described in Materials and Methods. Net increase in [Ca^2+]i was calculated by subtracting control values from respective experimental values (control [Ca^2+]i in resting cell was 108±16 nM).
Neutrophils (2×10^6/ml) were preloaded with fura 2-AM (5 μM) at 37° C. for 45 min and washed twice with HBSS (calcium free). […] For G-protein study, sample was pretreated with 500 ng/ml of pertussis toxin (PTX) at 37° C. for 2 hrs. […] [Ca^2+]i was measured on a spectrofluorometer as described in Materials and Methods. Net increase in [Ca^2+]i was calculated by subtracting control values from respective experimental values (control [Ca^2+]i in resting cell was 108±16 nM). […]
Where: K=224 nM (Fura-2 at 37° C.), Rmin=ratio value in minimal Ca^2+ conditions, Rmax=ratio value at a maximal Ca^2+ concentration, Sf380=380 nm reading in minimal Ca^2+ conditions (corrected for background), Sb380 =380 nm reading in maximal Ca^2+ conditions (corrected for background). […]

human neutrophils [2] = assay: AlF4−-induced neutrophil firm adhesion; settings: 500 ng/ml pretreatment, 2 hrs
Experimental: Effects of SPRST, Tet, or Fan on AlF4^−-induced changes in neutrophil adhesion. Fura 2-AM or BCECF-AM labeled-neutrophils were pretreated with 5-10 μg/ml of SPRST or other chemicals at 37° C. for 10 min. For G-protein study, sample was pretreated with 500 ng/ml of pertussis toxin (PTX) at 37° C. for 2 hrs before the addition of AlF4^− (10 mM NaF plus 10 μM AlCl3), a direct G-protein activator. AlF4^−-induced neutrophil adhesion were measured as described in Materials and Methods.
Measurement of Neutrophil Firm Adhesion. Adhesion of neutrophils to extracellular matrix was determined in 24-well tissue culture plates (FALCON®, NJ, USA) coated with fibrinogen as our previous study (Shen et al., 1999). Prior to the addition of neutrophils, the plates were incubated with 250 μl per well of human fibrinogen (50 pg/ml in PBS; Chemicon International, Inc., CA) for 2 hrs at 37° C. The wells were washed once with HBSS, blocked with 1% BSA (Sigma, USA) in HBSS for 1 hr at 37° C., and washed twice with HBSS containing 0.1% Tween-20 (Sigma, USA) and once with HBSS. […] Adherent neutrophils were then determined by measuring the fluorescence with a fluorescent plate reader (Cytofluor 2300, Millipore®) with excitation at 485 nm and emission at 530 nm. Data are expressed as fluorescence intensity.

human neutrophils [3] = assay: AlF4−-induced (direct G protein activation) [Ca2+]i increment; settings: 500 ng/ml pretreatment, 2 hrs
Experimental: Effects of SPRST, Tet, or Fan on AlF4^−-induced changes in intracellular calcium concentration ([Ca^2+]i). Fura 2-AM or BCECF-AM labeled-neutrophils were pretreated with 5-10 μg/ml of SPRST or other chemicals at 37° C. for 10 min. For G-protein study, sample was pretreated with 500 ng/ml of pertussis toxin (PTX) at 37° C. for 2 hrs before the addition of AlF4^− (10 mM NaF plus 10 μM AlCl3), a direct G-protein activator. AlF4^−-induced changes in [Ca^2+]i were measured as described in Materials and Methods. […] Values are mean±S.E.M. (n=5). *P<0.05, as compared to samples receiving AlF4^− alone for [Ca^2+]i and neutrophil adhesion, respectively. […]
Where: K=224 nM (Fura-2 at 37° C.), Rmin=ratio value in minimal Ca^2+ conditions, Rmax=ratio value at a maximal Ca^2+ concentration, Sf380=380 nm reading in minimal Ca^2+ conditions (corrected for background), Sb380 =380 nm reading in maximal Ca^2+ conditions (corrected for background). Rmax and Sb380 were obtained at the end of a measurement by permeabilizing the cells with 0.2% digitonin, where Rmin and Sf380 were determined by adding 20 mM EGTA after digitonin lysis.

Compound | cytotoxic effect (dead cells) (neutrophils) [%] | inhibition of fMLP- or LTB4-triggered rapid increase in [Ca2+]i (human neutrophils [1]) | AlF4−-induced neutrophil firm adhesion (human neutrophils [2]) | AlF4−-induced [Ca2+]i increment (human neutrophils [3])
COc1ccc2cc1Oc1ccc(cc1)C[C@H]1c3cc(c(OC)cc3CCN1C)Oc1c(O)c(OC)cc3c1[C@H](C2)N(C)CC3 [Fan, fangchinoline] | 0.84±0.11 | – | – | –
COc1ccc2cc1Oc1ccc(cc1)C[C@H]1c3cc(c(OC)cc3CCN1C)Oc1c(OC)c(OC)cc3c1[C@H](C2)N(C)CC3 [Tet, tetrandrine] | 1.24±0.17 | – | – | –
pertussis toxin [PTX] | – | abolished | significantly inhibited | significantly inhibited
